Converted amounts (≈) assume the structure as drawn.
What was measured:
[1] = test system: Miscellaneous gram-positive non-spore-forming rods; test: MIC against anaerobes: miscellaneous gram-positive non-spore-forming rods; type: cell-based; settings: Miscellaneous gram-positive non-spore-forming rods (20)
Micromonas micros = test: MIC against anaerobes: Micromonas micros; type: cell-based; settings: Micromonas micros (14)
[2] = test system: Bacteroides fragilis group spp.; test: MIC against intestinal bacteria: Bacteroides fragilis group; type: cell-based
All Clostridium species = test: MIC against intestinal bacteria: all Clostridium species; type: cell-based; settings: All Clostridium species (107)
Fusobacterium mortiferum = test: MIC against anaerobes: Fusobacterium mortiferum; type: cell-based; settings: Fusobacterium mortiferum (10)
Description: (§1) The in vitro activity of OPT-80 was determined against 350 anaerobes. The experimental procedure for which is outlined in Antimicrobial Agents and Chemotherapy, 2004, 48: 4430-4434, which is hereby incorporated by reference in its entirety.
(§2) All organisms, including the 21 C. difficile strains, were separate isolates and not clonally related. All quality-control gram-negative and -positive strains recommended by NCCLS were included with each run: in every case, results (where available) were in range.

[3] = test system: Fusobacterium species, miscellaneous; test: MIC against anaerobes: Fusobacterium species, miscellaneous; type: cell-based; settings: miscellaneous (14)
Description: as §1, §2

Clostridium difficile [4] = test: MIC against intestinal bacteria: Clostridium difficile; type: cell-based; settings: Clostridium difficile (23)
Description: (§3) The in vitro activity of OPT-80 against intestinal bacteria was evaluated. The experimental procedure for which is outlined in Antimicrobial Agents and Chemotherapy, 2004, 48: 4898-4902, which is hereby incorporated by reference in its entirety.
(§4) Antimicrobial concentration ranges were selected to encompass or surpass the levels that would be achieved in the gut (to the extent that this information is available), subject to the limitations of solubility of the drugs in the testing medium. The range of concentration of OPT-80 used during testing was 0.03 μg/ml to 1024 μg/ml.
(§5) For analysis, the bacteria tested were generally placed into genus, species, or other groups with at least 10 isolates. The ranges and the MICs at which 50 and 90% of isolates were inhibited were determined except for organisms with fewer than 10 strains tested, for which only the ranges are reported (Table 8).

[5] = test system: Other Streptococcus species; test: MIC against intestinal bacteria: other Streptococcus species; type: cell-based; settings: Other Streptococcus species (9)
Description: as §3, §4, §5

Clostridium sordellii = test: MIC against intestinal bacteria: Clostridium sordellii; type: cell-based; settings: Clostridium sordellii (5)
Description: as §3, §4, §5

Clostridium perfringens = type: cell-based; settings: Clostridium perfringens (14)
Veillonella spp. = test: MIC against intestinal bacteria: Veillonella; type: cell-based; settings: Veillonella spp. (10)
Description: as §3, §4, §5

Fusobacterium nucleatum = test: MIC against anaerobes: Fusobacterium nucleatum; type: cell-based; settings: Fusobacterium nucleatum (14)
Description: as §1, §2

Clostridium difficile [6] = test: MIC against anaerobes: Clostridium difficile; type: cell-based; settings: Clostridium difficile (21)
Description: as §1, §2

[7] = test system: Peptostreptococcus asaccharolyticus; test: MIC against anaerobes: Peptostreptococcus asaccharolyticus; type: cell-based; settings: Peptostreptococcus asaccharolyticus (15)
Finegoldia magna = test: MIC against anaerobes: Finegoldia magna; type: cell-based; settings: Finegoldia magna (15)
Enterococcus species = test: MIC against intestinal bacteria: Enterococcus species; type: cell-based; settings: Enterococcus species (21)
[8] = test system: Clostridium clostridioforme; test: MIC against intestinal bacteria: Clostridium clostridioforme; type: cell-based; settings: Clostridium clostridioforme (4)
Description: as §3, §4, §5

E. faecalis = test: MIC against other microorganisms: E. faecalis; settings: Enterococcus faecalis
[9] = test system: Anaerobic non-spore-forming gram-positive rods; test: MIC against intestinal bacteria: anaerobic non-spore-forming gram-positive rods; type: cell-based
Clostridium ramosum = test: MIC against intestinal bacteria: Clostridium ramosum; type: cell-based
Clostridium spp. (all) = test: MIC against anaerobes: Clostridium spp. (all); type: cell-based
Description: as §1, §2

[10] = test system: Peptostreptococcus tetradius; test: MIC against anaerobes: Peptostreptococcus tetradius; type: cell-based; settings: Peptostreptococcus tetradius (16)
Clostridium innocuum = test: MIC against intestinal bacteria: Clostridium innocuum; type: cell-based; settings: Clostridium innocuum (9)
Description: as §3, §4, §5

Clostridium bifermentans = test: MIC against intestinal bacteria: Clostridium bifermentans; type: cell-based; settings: Clostridium bifermentans (9)
[11] = test system: Anaerobic gram-positive cocci; test: MIC against intestinal bacteria: anaerobic gram-positive cocci; type: cell-based; settings: Anaerobic gram-positive cocci (49)
[12] = test system: Staphylococcus aureus and Staphylococcus epidermidis; test: MIC against intestinal bacteria: Staphylococcus aureus and Staphylococcus epidermidis; type: cell-based; settings: Staphylococcus aureus and Staphylococcus epidermidis (19)
[13] = test system: Prevotella/Porphyromonas species; test: MIC against anaerobes: Prevotella/Porphyromonas; type: cell-based; settings: Prevotella/Porphyromonas species (42)
Description: as §1, §2

S. aureus = test: MIC against other microorganisms: S. aureus
Propionibacterium acnes = test: MIC against anaerobes: Propionibacterium acnes; type: cell-based; settings: Propionibacterium acnes (20)

## CCc1c(Cl)c(O)c(Cl)c(O)c1C(=O)O[C@H]1[C@H](O)[C@H](OC)[C@H](OCC2=CC=CC[C@H](O)C(C)=C[C@H](CC)[C@@H](O[C@@H]3OC(C)(C)[C@@H](OC(=O)C(C)C)[C@H](O)[C@@H]3O)C(C)=CC(C)=CC[C@@H]([C@@H](C)O)OC2=O)O[C@@H]1C [R-Tiacumicin B, 3-[[[6-Deoxy-4-O-(3,5-dichloro-2-ethyl-4,6-dihydroxybenzoyl)-2-O-methyl-β-D-mannopyranosyl]oxy]-methyl]-12(R)-[[6-deoxy-5-C-methyl-4-O-(2-methyl-1-oxopropyl)-β-D-lyxo-hexopyranosyl]oxy]-11(S)-ethyl-8(S)-hydroxy-18(S)-(1(R)-hydroxyethyl)-9,13,15-trimethyloxacyclooctadeca-3,5,9,13,15-pentaene-2-one]
[1]
  MIC50: < 0.125 µg/mL
  MIC90: 16 µg/mL (≈ 15.1 µM)
  MIC range: <0.016 to 16 µg/mL
Micromonas micros
  MIC range: <0.016 to 0.06 µg/mL
Micromonas micros; Parvimonas micra
  MIC50: 0.03 µg/mL (≈ 0.0284 µM)
  MIC90: 0.06 µg/mL (≈ 0.0567 µM)
[2]; Bacteroides fragilis
  MIC90: > 1020 µg/mL
[2]; Bacteroides fragilis group spp. (50)
  MIC50: 256 µg/mL (≈ 242 µM)
All Clostridium species
  MIC50: 0.062 µg/mL (≈ 0.0586 µM)
  MIC90: 128 µg/mL (≈ 121 µM)
Fusobacterium mortiferum
  MIC50: > 128 µg/mL
  MIC90: > 128 µg/mL
[3]
  MIC50: > 128 µg/mL
  MIC90: > 128 µg/mL
Clostridium difficile [4]; Clostridioides difficile
  MIC50: 0.12 µg/mL (≈ 0.113 µM)
  MIC90: 0.25 µg/mL (≈ 0.236 µM)
Clostridium difficile [4]
  MIC range: 0.06 to 2 µg/mL
[5]
  MIC range: 16 to 128 µg/mL
Clostridium sordellii
  MIC range: 0.06 µg/mL (≈ 0.0567 µM)
Clostridium perfringens
  MIC range: 0.06 µg/mL (≈ 0.0567 µM)
Veillonella spp.
  MIC50: 32 µg/mL (≈ 30.2 µM)
  MIC90: 128 µg/mL (≈ 121 µM)
  MIC range: 16 to 128 µg/mL
Fusobacterium nucleatum
  MIC50: > 128 µg/mL
  MIC90: > 128 µg/mL
Clostridium difficile [6]; Clostridioides difficile
  MIC50: < 0.016 µg/mL
  MIC90: 0.125 µg/mL (≈ 0.118 µM)
Clostridium difficile [6]
  MIC range: <0.016 to 0.25 µg/mL
[7]; Peptoniphilus asaccharolyticus
  MIC50: 0.5 µg/mL (≈ 0.473 µM)
  MIC90: 1 µg/mL (≈ 0.945 µM)
[7]
  MIC range: 0.25 to 1.0 µg/mL
Finegoldia magna
  MIC50: 1 µg/mL (≈ 0.945 µM)
  MIC90: 1 µg/mL (≈ 0.945 µM)
  MIC range: 0.25 to 2.0 µg/mL
Enterococcus species
  MIC50: 8 µg/mL (≈ 7.56 µM)
  MIC90: 8 µg/mL (≈ 7.56 µM)
  MIC range: 2.0 to 16 µg/mL
[8]
  MIC range: 4 to 128 µg/mL
E. faecalis; ATCC29212, Strain ID # 4, E. faecalis (ATCC 29212)
  MIC: 2 µg/mL (≈ 1.89 µM)
E. faecalis; Strain ID # 5, E. faecalis Vanc. resistant
  MIC: 4 µg/mL (≈ 3.78 µM)
E. faecalis; Strain ID # 6, E. faecalis Vanc. resistant
  MIC: 1 µg/mL (≈ 0.945 µM)
[9]
  MIC90: 32 µg/mL (≈ 30.2 µM)
[9]; Anaerobic non-spore-forming gram-positive rods (63)
  MIC50: 1 µg/mL (≈ 0.945 µM)
Clostridium ramosum; Clostridium ramosum (10)
  MIC range: 256 to 512 µg/mL
Clostridium ramosum; Thomasclavelia ramosa
  MIC50: 512 µg/mL (≈ 484 µM)
Clostridium ramosum; Thomasclavelia ramosa, Clostridium ramosum (10)
  MIC90: 512 µg/mL (≈ 484 µM)
Clostridium spp. (all)
  MIC50: < 0.016 µg/mL
  MIC90: 0.06 µg/mL (≈ 0.0567 µM)
[10]; Anaerococcus tetradius
  MIC50: 1 µg/mL (≈ 0.945 µM)
  MIC90: 1 µg/mL (≈ 0.945 µM)
[10]
  MIC range: 0.25 to 2.0 µg/mL
Clostridium innocuum
  MIC range: 32 to 128 µg/mL
Clostridium bifermentans
  MIC range: 0.06 µg/mL (≈ 0.0567 µM)
[11]
  MIC50: 0.5 µg/mL (≈ 0.473 µM)
  MIC90: 2 µg/mL (≈ 1.89 µM)
[12]
  MIC50: 0.5 µg/mL (≈ 0.473 µM)
  MIC90: 2 µg/mL (≈ 1.89 µM)
  MIC range: 0.25 to 2 µg/mL
[13]
  MIC50: > 128 µg/mL
  MIC90: > 128 µg/mL
S. aureus; Staphylococcus aureus, ATCC29213
  MIC: 4 µg/mL (≈ 3.78 µM)
S. aureus; Staphylococcus aureus, MRSA
  MIC: 4 µg/mL (≈ 3.78 µM)
S. aureus; Strain ID # 3, S. aureus, (MRSA)
  MIC: 4 µg/mL (≈ 3.78 µM)
Propionibacterium acnes; Cutibacterium acnes
  MIC50: 4 µg/mL (≈ 3.78 µM)
  MIC90: 4 µg/mL (≈ 3.78 µM)
Propionibacterium acnes
  MIC range: 0.5 to 1.0 µg/mL

From US8586551B2, “18-membered macrocycles and analogs thereof” (Optimer Pharmaceuticals, Inc., priority 2005, dated 2013)
